Where two headings read alike, the source gives them in different places.
How the values were obtained:
hT2R7 = hT2R7 (Homo sapiens (Human), UniProt Q9NYW3); experiment: hT2R panel inhibition, transient HEK293 G16g44, agonist Chloroquine pH6.5 10 mM; assay type: cell-based; settings: HEK293, compound at 25 μM; receptor activated to EC80 with the corresponding agonist; read-out: screening result against bitter receptor 7
Description: (§1) Specifically, in order to evaluate the inhibitory selectivity of the Compound C compound, this compound was tested against 22 human T2Rs which were deorphaned by Senomyx. These receptors and the bitter ligands that activate these human T2Rs are reported in earlier patent applications which are incorporated by reference herein. These 22 human T2Rs are hT2R1, 3, 4, 5, 7, 8, 9, 10, 13, 14, 16, 44, 51, 54, 55, 61, 63, 64, 65, 67, 71 and 75. The amino acid and nucleic acid sequences of all of these T2Rs may be found in these earlier patent applications. These human T2Rs were each individually transiently transfected into HEK293 cells that stably express the promiscuous G protein G16g44 and functional assays were effected using these receptors as disclosed in these same patent applications. […] The ligands were used at EC80 concentration levels. The list of bitter ligands utilized and the tested ligand concentrations are contained in Table 5 of this example.
(§2) Relating to the foregoing, FIG. 5 contains experimental results wherein Compound C was tested with different agonist compounds. The inhibition activity is represented by the reduction of receptor activity in the presence of Compound C. […] These 13 hT2Rs are hT2R3, 7, 10, 14, 16, 44, 51, 55, 61, 63, 64, 65, and 71.

hT2R63 = experiment: hT2R panel inhibition, transient HEK293 G16g44, agonist Caffeine 1 mM or Andrographolide 100 μM; assay type: cell-based, human; settings: compound at 25 μM; receptor activated to EC80 with the corresponding agonist
Description: as §1, §2

hT2R67 = experiment: hT2R panel inhibition, transient HEK293 G16g44, agonist Andrographolide 5 μM; assay type: cell-based, human; settings: compound at 25 μM; receptor activated to EC80 with the corresponding agonist
Description: as §1, §2

hT2R64 = hT2R64 (Homo sapiens (Human), UniProt P59538); experiment: hT2R panel inhibition, transient HEK293 G16g44, agonist Aristolochic Acid 1 μM; assay type: cell-based; settings: HEK293, compound at 25 μM; receptor activated to EC80 with the corresponding agonist; read-out: screening result against bitter receptor 64
hT2R64, sequence (P59538 whole entry): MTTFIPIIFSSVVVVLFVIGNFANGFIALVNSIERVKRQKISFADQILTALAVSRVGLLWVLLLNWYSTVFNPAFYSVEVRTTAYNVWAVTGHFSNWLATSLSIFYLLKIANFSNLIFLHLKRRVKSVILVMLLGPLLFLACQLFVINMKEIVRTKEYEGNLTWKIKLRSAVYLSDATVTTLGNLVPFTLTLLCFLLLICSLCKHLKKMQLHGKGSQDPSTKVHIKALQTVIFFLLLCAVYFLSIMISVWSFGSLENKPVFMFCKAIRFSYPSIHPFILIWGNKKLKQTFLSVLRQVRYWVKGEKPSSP
Description: as §1, §2

hT2R55 = experiment: hT2R panel inhibition, transient HEK293 G16g44, agonist Cinchonine 150 μM; assay type: cell-based, human; settings: compound at 25 μM; for screening result against bitter receptor 55: receptor activated to EC80 with the corresponding agonist
Description: as §1, §2

hT2R71 = hT2R71 (Homo sapiens (Human), UniProt P59536); experiment: hT2R panel inhibition, transient HEK293 G16g44, agonist Picric Acid 10 μM; assay type: cell-based; settings: HEK293, compound at 25 μM; receptor activated to EC80 with the corresponding agonist; read-out: screening result against bitter receptor 71
hT2R71, sequence (P59536 whole entry): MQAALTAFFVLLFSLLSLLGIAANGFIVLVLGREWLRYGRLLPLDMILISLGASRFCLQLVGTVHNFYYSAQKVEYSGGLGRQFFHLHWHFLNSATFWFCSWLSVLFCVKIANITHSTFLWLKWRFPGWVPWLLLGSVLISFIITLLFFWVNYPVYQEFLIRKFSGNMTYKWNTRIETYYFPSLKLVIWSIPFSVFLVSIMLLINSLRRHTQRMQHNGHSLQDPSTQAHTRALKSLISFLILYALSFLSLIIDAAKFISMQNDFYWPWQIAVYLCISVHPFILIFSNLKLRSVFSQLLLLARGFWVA
Description: as §1, §2

hT2R14 [1] = biological target: T1, hT2R14 (Homo sapiens (Human), UniProt Q9NYV8); experiment: hT2R14 antagonist high-throughput FLIPR assay, stable cell line with G16g44, agonist aristolochic acid; assay type: cell-based
T1 sequence (Q9NYV8 whole entry): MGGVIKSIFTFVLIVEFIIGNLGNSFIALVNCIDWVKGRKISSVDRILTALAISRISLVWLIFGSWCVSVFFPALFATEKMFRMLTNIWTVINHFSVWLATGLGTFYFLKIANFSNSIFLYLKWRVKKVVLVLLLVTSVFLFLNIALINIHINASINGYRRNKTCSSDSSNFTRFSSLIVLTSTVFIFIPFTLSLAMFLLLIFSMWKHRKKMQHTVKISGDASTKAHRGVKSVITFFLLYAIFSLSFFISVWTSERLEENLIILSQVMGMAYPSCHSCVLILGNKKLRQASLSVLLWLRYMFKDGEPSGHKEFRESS
In short: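 HEK293 cells stably expressing hT2R14 with chimeric G16g44 were stimulated with aristolochic acid (3 μM), giving 70-80% of maximal receptor activity. Test compounds were added together with the agonist, and antagonism was read as fluorescent calcium signal on FLIPR.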

hT2R61 = hT2R61 (Homo sapiens (Human), UniProt P59537); experiment: hT2R panel inhibition, transient HEK293 G16g44, agonist Aristolochic Acid 25 nM; assay type: cell-based; settings: HEK293, compound at 25 μM; receptor activated to EC80 with the corresponding agonist; read-out: screening result against bitter receptor 61
hT2R61, sequence (P59537 whole entry): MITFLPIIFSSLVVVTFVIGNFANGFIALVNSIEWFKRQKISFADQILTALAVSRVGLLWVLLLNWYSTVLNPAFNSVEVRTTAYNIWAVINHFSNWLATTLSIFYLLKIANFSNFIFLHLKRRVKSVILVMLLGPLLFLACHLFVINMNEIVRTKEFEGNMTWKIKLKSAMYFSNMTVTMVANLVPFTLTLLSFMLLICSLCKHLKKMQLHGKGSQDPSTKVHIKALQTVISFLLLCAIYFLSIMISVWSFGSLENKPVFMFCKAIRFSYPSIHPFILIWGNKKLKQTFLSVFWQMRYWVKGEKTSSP
Description: as §1, §2

hT2R65 = experiment: hT2R panel inhibition, transient HEK293 G16g44, agonist Oleuropein 1 mM; assay type: cell-based, human; settings: compound at 25 μM; receptor activated to EC80 with the corresponding agonist
Description: as §1, §2

hT2R14 [2] = biological target: T1, hT2R14; experiment: hT2R panel inhibition, transient HEK293 G16g44, agonist Aristolochic Acid 2 μM; assay type: cell-based; settings: HEK293, compound at 25 μM
Description: as §1

hT2R16 = hT2R16 (Homo sapiens (Human), UniProt Q9NYV7); experiment: hT2R panel inhibition, transient HEK293 G16g44, agonist Salicin 1 mM; assay type: cell-based; settings: HEK293, compound at 25 μM; receptor activated to EC80 with the corresponding agonist; read-out: screening result against bitter receptor 16
hT2R16, sequence (Q9NYV7 whole entry): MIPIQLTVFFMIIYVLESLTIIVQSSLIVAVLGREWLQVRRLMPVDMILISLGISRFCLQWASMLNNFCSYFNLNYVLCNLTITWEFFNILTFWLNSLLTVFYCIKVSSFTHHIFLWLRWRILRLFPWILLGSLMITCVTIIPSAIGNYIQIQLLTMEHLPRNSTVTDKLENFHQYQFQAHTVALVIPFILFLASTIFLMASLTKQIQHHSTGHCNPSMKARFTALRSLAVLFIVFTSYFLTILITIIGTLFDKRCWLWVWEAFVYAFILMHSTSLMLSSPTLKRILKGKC
Description: as §1, §2

hT2R44 = experiment: hT2R panel inhibition, transient HEK293 G16g44, agonist Denatonium 0.5 μM; assay type: cell-based, human; settings: compound at 25 μM; receptor activated to EC80 with the corresponding agonist
Description: as §1, §2

hT2R54 = experiment: hT2R panel inhibition, transient HEK293 G16g44, agonist Ranitidine 5 mM; assay type: cell-based, human; settings: compound at 25 μM; for screening result against bitter receptor 54: receptor activated to EC80 with the corresponding agonist
Description: as §1, §2

hT2R10 = hT2R10 (Homo sapiens (Human), UniProt Q9NYW0); experiment: hT2R panel inhibition, transient HEK293 G16g44, agonist Strychnine 50 μM; assay type: cell-based; settings: HEK293, read-out: screening result against bitter receptor 10, compound at 25 μM; receptor activated to EC80 with the corresponding agonist
hT2R10, sequence (Q9NYW0 whole entry): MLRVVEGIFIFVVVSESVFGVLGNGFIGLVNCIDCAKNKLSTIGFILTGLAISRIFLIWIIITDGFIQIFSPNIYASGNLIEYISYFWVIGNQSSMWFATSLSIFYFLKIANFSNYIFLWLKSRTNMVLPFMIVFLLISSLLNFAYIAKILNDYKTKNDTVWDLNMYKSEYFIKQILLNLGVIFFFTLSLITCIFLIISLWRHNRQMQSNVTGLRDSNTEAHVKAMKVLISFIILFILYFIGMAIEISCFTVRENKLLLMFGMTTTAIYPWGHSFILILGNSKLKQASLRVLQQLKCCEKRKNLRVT
Description: as §1, §2

hT2R3 = hT2R3 (Homo sapiens (Human), UniProt Q9NYW6); experiment: hT2R panel inhibition, transient HEK293 G16g44, agonist Chloroquine pH6.5 50 μM; assay type: cell-based; settings: HEK293, compound at 25 μM; receptor activated to EC80 with the corresponding agonist; read-out: screening result against bitter receptor 3
hT2R3, sequence (Q9NYW6 whole entry): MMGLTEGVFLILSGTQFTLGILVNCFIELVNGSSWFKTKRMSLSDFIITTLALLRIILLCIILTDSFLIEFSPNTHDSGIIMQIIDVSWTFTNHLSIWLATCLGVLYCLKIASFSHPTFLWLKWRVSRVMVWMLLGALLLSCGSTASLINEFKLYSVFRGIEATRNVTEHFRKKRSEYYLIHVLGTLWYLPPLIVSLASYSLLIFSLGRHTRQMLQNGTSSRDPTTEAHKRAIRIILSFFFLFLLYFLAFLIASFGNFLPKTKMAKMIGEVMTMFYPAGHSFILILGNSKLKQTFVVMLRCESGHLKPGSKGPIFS
Description: as §1, §2

hT2R5 = hT2R5 (Homo sapiens (Human), UniProt Q9NYW4); experiment: hT2R panel inhibition, transient HEK293 G16g44, agonist Picoline 10 mM; assay type: cell-based; settings: HEK293, compound at 25 μM; receptor activated to EC80 with the corresponding agonist; read-out: screening result against bitter receptor 5
hT2R5, sequence (Q9NYW4 whole entry): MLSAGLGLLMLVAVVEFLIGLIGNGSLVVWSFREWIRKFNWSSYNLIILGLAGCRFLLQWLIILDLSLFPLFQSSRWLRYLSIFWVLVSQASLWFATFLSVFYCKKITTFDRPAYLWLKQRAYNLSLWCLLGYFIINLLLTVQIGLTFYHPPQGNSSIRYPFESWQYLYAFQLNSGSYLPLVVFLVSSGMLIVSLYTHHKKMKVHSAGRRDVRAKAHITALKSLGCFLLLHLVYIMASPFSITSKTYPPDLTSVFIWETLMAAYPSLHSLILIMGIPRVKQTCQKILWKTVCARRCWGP
Description: as §1, §2

[3] = receptor activated to EC80 with the corresponding agonist, read-out: screening result against bitter receptor 14
[4] = read-out: IC50 on hT2R14 bitter receptor

hT2R7, sequence (Q9NYW3 whole entry): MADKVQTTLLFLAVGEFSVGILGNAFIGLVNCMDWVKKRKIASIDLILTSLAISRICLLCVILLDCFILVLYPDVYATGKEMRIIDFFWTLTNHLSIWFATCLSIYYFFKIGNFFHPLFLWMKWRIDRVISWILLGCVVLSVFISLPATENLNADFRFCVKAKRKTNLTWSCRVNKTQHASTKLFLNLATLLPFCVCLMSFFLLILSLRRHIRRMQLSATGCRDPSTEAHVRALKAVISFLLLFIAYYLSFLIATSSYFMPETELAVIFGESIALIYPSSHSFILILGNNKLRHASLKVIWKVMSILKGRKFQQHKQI

| SMILES | inhibition at 25 µM (hT2R7) [%] | screening result against bitter receptor 63 (hT2R63) | screening result against bitter receptor 67 (hT2R67) | inhibition at 25 µM (hT2R64) [%] | screening result against bitter receptor 55 (hT2R55) | inhibition at 25 µM (hT2R71) [%] | inhibition at 25 µM (hT2R61) [%] | screening result against bitter receptor 65 (hT2R65) | inhibition at 25 µM (hT2R14 [2]; [3]) [%] | inhibition at 25 µM (hT2R16) [%] | screening result against bitter receptor 44 (hT2R44) | screening result against bitter receptor 54 (hT2R54) | inhibition at 25 µM (hT2R3) [%] | inhibition at 25 µM (hT2R5) [%] | further results |
| --- | --- | --- | --- | --- | --- | --- | --- | --- | --- | --- | --- | --- | --- | --- | --- |
| O=C(O)c1ccc(S(=O)(=O)N(Cc2ccccc2)Cc2ccc(O)cc2)cc1 [Example 5-99, 4-(N-benzyl-N-(4-hydroxybenzyl)sulfamoyl)benzoic acid] | 20 to 40 | ++++ (80% or greater inhibition = ++++) | ++ (40% to 60% inhibition = ++) | 60 to 80 | + (20% to 40% inhibition = +) | 60 to 80 | > 80 | ++ (40% to 60% inhibition = ++) | > 80 | 20 to 40 | +++ (60% to 80% inhibition = +++) | – | – | – | IC50 (hT2R14 [1]; Table C, read-out: hT2R14 IC50): 5.21 µM |
| COc1ccc(CN(c2ccccc2)S(=O)(=O)c2ccc(C(=O)O)cc2)cc1 [Example 5-18, 4-(N-(4-methoxybenzyl)-N-phenylsulfamoyl)benzoic acid] | – | +++ (60% to 80% inhibition = +++) | – | > 80 | ++++ (80% or greater inhibition = ++++) | 40 to 60 | 60 to 80 | + (20% to 40% inhibition = +) | – | 40 to 60 | +++ (60% to 80% inhibition = +++) | ++ (40% to 60% inhibition = ++) | – | – | inhibition at 25 µM (hT2R10): > 80% |
| COc1ccc(CN(Cc2cccnc2)S(=O)(=O)c2ccc(C(=O)O)cc2)cc1 [Example 5-88, 4-(N-(4-methoxybenzyl)-N-(pyridin-3-ylmethyl)sulfamoyl)benzoic acid] | – | +++ (60% to 80% inhibition = +++) | + (20% to 40% inhibition = +) | 20 to 40 | – | 20 to 40 | 40 to 60 | – | 20 to 40 | – | + (20% to 40% inhibition = +) | – | 20 to 40 | – | – |
| COc1ccc(CN(Cc2ccccc2)S(=O)(=O)c2ccc(-c3nn[nH]n3)cc2)cc1 [Example 5-46, N-benzyl-N-(4-methoxybenzyl)-4-(1H-tetrazol-5-yl)benzene-sulfonamide] | 20 to 40 | +++ (60% to 80% inhibition = +++) | ++ (40% to 60% inhibition = ++) | – | + (20% to 40% inhibition = +) | 60 to 80 | > 80 | ++ (40% to 60% inhibition = ++) | > 80 | 20 to 40 | ++ (40% to 60% inhibition = ++) | – | 20 to 40 | – | IC50 (hT2R14 [1]; [4]): 3.67 µM |
| COc1ccc(CN(CCc2ccccc2)S(=O)(=O)c2ccc(C(=O)O)cc2)cc1 [Example 5-19, 4-(N-(4-methoxybenzyl)-N-phenethylsulfamoyl)benzoic acid] | – | – | – | > 80 | ++++ (80% or greater inhibition = ++++) | 20 to 40 | – | + (20% to 40% inhibition = +) | > 80 | 20 to 40 | ++ (40% to 60% inhibition = ++) | + (20% to 40% inhibition = +) | 20 to 40 | 20 to 40 | inhibition at 25 µM (hT2R10): 20 to 40%; IC50 (hT2R14 [1]; [4]): 4.58 µM |
| Cn1c(=O)c2cc(S(=O)(=O)Nc3ccc4c(c3)OCCO4)ccc2n(C)c1=O [Example 6-6, N-(2,3-dihydrobenzo[b][1,4]dioxin-6-yl)-1,3-dimethyl-2,4-dioxo-1,2,3,4-tetrahydroquinazoline-6-sulfonamide] | – | – | – | – | – | – | – | – | – | – | – | – | – | – | inhibition of bitter receptor 54 (hT2R54; receptor activated to EC80 with agonist): + (20% to 40% inhibition = +); screening result against bitter receptor 55, printed as a number (meaning not defined) (hT2R55; receptor activated to EC80 with agonist, numeric cell): 210; IC50 (hT2R14 [1]; Table D, read-out: hT2R14 IC50): 0.706 µM; inhibition at 25 µM (hT2R14 [2]; receptor activated to EC80 with agonist, read-out: inhibition of bitter receptor 14): > 80% |
| COc1ccc(N(Cc2ccccc2)S(=O)(=O)c2ccc(C(=O)O)cc2)cc1 [Example 5-35, 4-(N-benzyl-N-(4-methoxyphenyl)sulfamoyl)benzoic acid] | 20 to 40 | +++ (60% to 80% inhibition = +++) | – | 20 to 40 | +++ (60% to 80% inhibition = +++) | 40 to 60 | > 80 | – | 20 to 40 | 20 to 40 | + (20% to 40% inhibition = +) | + (20% to 40% inhibition = +) | 20 to 40 | 20 to 40 | – |
| COc1ccc(CN(Cc2ccc(C)o2)S(=O)(=O)c2ccc(C(=O)O)cc2)cc1 [Example 5-63, 4-(N-(4-methoxybenzyl)-N-((5-methylfuran-2-yl)methyl)sulfamoyl)benzoic acid] | – | +++ (60% to 80% inhibition = +++) | + (20% to 40% inhibition = +) | 40 to 60 | +++ (60% to 80% inhibition = +++) | 20 to 40 | – | – | – | – | – | – | 20 to 40 | 20 to 40 | – |

— patent US9247759B2, “Identification of human T2R receptors that respond to bitter compounds that elicit the bitter taste in compositions, and the use thereof in assays to identify compounds that inhibit (block) bitter taste in compositions and use thereof” (SENOMYX, INC., priority 2007, dated 2016)
